In ChEMBL document CHEMBL4725235, “Small molecule DTDQ exerts anti-metastatic effects in DU145 human castration-resistant prostate cancer cells via modulations of ERK, JNK, p38 and c-Myc signaling pathways” (Bioorg Med Chem Lett, 2020):
The source made the active and inactive calls.

Legend:
[1] = tested on: DU-145; assay: Cytotoxicity against human DU-145 cells assessed as reduction in cell viability at 10 uM incubated for 24 hrs by CCK8 assay relative to control; assay type: functional
[2] = tested on: DU-145; assay: Cytotoxicity against human DU-145 cells assessed as reduction in cell viability after 24 hrs by CCK8 assay; assay type: functional, cell-based; settings: DU-145, 24 h
[3] = tested on: DU-145; assay: Inhibition of colony formation in human DU-145 cells at 12 to 24 uM incubated for 2 weeks with media replacement for every 3 days by crystal violet staining based microscopic analysis; assay type: functional, cell-based; settings: dose microM 12-24, time 2.0 weeks
[4] = tested on: DU-145; assay: Inhibition of cell migration in human DU-145 cells at 12 to 24 uM incubated for 24 hrs by wound healing assay; assay type: functional, cell-based; settings: dose microM 12-24, time 24.0 hrs
[5] = tested on: DU-145; assay: Antiinvasive activity against human DU-145 cells assessed as inhibition of cell migration at 12 to 24 uM incubated for 20 hrs by Boyden chamber assay; assay type: functional, cell-based; settings: dose microM 12-24, time 20.0 hrs
[6] = tested on: DU-145; assay: Inhibition of metastasis in human DU-145 cells assessed as reduction in MMP2 expression incubated for 48 hrs by Western blot analysis; assay type: functional, cell-based; settings: dose microM 12-24, time 48.0 hrs
[7] = tested on: DU-145; assay: Inhibition of metastasis in human DU-145 cells assessed as reduction in MMP9 expression incubated for 48 hrs by Western blot analysis; assay type: functional, cell-based; settings: dose microM 12-24, time 48.0 hrs
[8] = tested on: DU-145; assay: Inhibition of metastasis in human DU-145 cells assessed as reduction in MMP2 mRNA expression at 12 to 24 uM incubated for 48 hrs by qRT-PCR analysis; assay type: functional, cell-based; settings: dose microM 12-24, time 48.0 hrs
[9] = tested on: DU-145; assay: Inhibition of metastasis in human DU-145 cells assessed as reduction in MMP9 mRNA expression at 12 to 24 uM incubated for 48 hrs by qRT-PCR analysis; assay type: functional, cell-based; settings: dose microM 12-24, time 48.0 hrs
[10] = tested on: DU-145; assay: Modulatory activity of MAPK signaling pathway in human DU-145 cells assessed as reduction in ERK phosphorylation incubated for 24 hrs by Western blot analysis; assay type: cell-based; settings: filed as modulator, dose microM 12-24, time 24.0 hrs
[11] = tested on: DU-145; assay: Modulatory activity of MAPK signaling pathway in human DU-145 cells assessed as increase in JNK activation at 12 to 24 uM incubated for 24 hrs by Western blot analysis; assay type: cell-based; settings: filed as modulator, dose microM 12-24, time 24.0 hrs
[12] = tested on: DU-145; assay: Modulatory activity of MAPK signaling pathway in human DU-145 cells assessed as increase in p38 activation at 12 to 24 uM incubated for 24 hrs by Western blot analysis; assay type: cell-based; settings: filed as modulator, dose microM 12-24, time 24.0 hrs
[13] = tested on: DU-145; assay: Modulatory activity of MAPK signaling pathway in human DU-145 cells assessed as reduction in c-MYC expression at 12 to 24 uM incubated for 24 hrs by Western blot analysis; assay type: cell-based; settings: filed as modulator, dose microM 12-24, time 24.0 hrs
[14] = tested on: DU-145; assay: Modulatory activity of MAPK signaling pathway in human DU-145 cells assessed as beta-catenine expression at 12 to 24 uM incubated for 24 hrs by Western blot analysis; assay type: cell-based; settings: dose microM 12-24, time 24.0 hrs
[15] = tested on: DU-145; assay: Modulatory activity of MAPK signaling pathway in human DU-145 cells assessed as NFkappaB expression at 12 to 24 uM incubated for 24 hrs by Western blot analysis; assay type: cell-based; settings: dose microM 12-24, time 24.0 hrs
[16] = tested on: DU-145; assay: Modulatory activity of MAPK signaling pathway in human DU-145 cells assessed as EST-1 expression at 12 to 24 uM incubated for 24 hrs by Western blot analysis; assay type: cell-based; settings: dose microM 12-24, time 24.0 hrs
[17] = tested on: PC-3; assay: Cytotoxicity against human PC-3 cells assessed as reduction in cell viability at 40 uM incubated for 24 hrs by CCK8 assay relative to control; assay type: functional
[18] = tested on: PC-3; assay: Inhibition of colony formation in human PC-3 cells incubated for 2 weeks with media replacement for every 3 days by crystal violet staining based microscopic analysis; assay type: functional, cell-based; settings: dose microM 12-24, time 2.0 weeks
[19] = tested on: PC-3; assay: Inhibition of cell migration in human PC-3 cells at 12 to 24 uM incubated for 24 hrs by wound healing assay; assay type: functional, cell-based; settings: dose microM 12-24, time 24.0 hrs
[20] = tested on: PC-3; assay: Inhibition of metastasis in human PC-3 cells assessed as reduction in MMP2 expression at 12 to 24 uM incubated for 48 hrs by Western blot analysis; assay type: functional, cell-based; settings: dose microM 12-24, time 48.0 hrs
[21] = tested on: PC-3; assay: Inhibition of metastasis in human PC-3 cells assessed as reduction in MMP9 expression at 12 to 24 uM incubated for 48 hrs by Western blot analysis; assay type: functional, cell-based; settings: dose microM 12-24, time 48.0 hrs
[22] = tested on: PC-3; assay: Modulatory activity of MAPK signaling pathway in human PC-3 cells assessed as reduction in ERK phosphorylation incubated for 24 hrs by Western blot analysis; assay type: cell-based; settings: filed as modulator, dose microM 12-24, time 24.0 hrs
[23] = tested on: PC-3; assay: Modulatory activity of MAPK signaling pathway in human PC-3 cells assessed as increase in JNK phosphorylation at 12 to 24 uM incubated for 24 hrs by Western blot analysis; assay type: cell-based; settings: filed as modulator, dose microM 12-24, time 24.0 hrs
[24] = tested on: PC-3; assay: Modulatory activity of MAPK signaling pathway in human PC-3 cells assessed as increase in p38 phosphorylation at 12 to 24 uM incubated for 24 hrs by Western blot analysis; assay type: cell-based; settings: dose microM 12-24, time 24.0 hrs
[25] = tested on: PC-3; assay: Modulatory activity of MAPK signaling pathway in human PC-3 cells assessed as reduction in c-MYC expression at 12 to 24 uM incubated for 24 hrs by Western blot analysis; assay type: cell-based; settings: filed as modulator, dose microM 12-24, time 24.0 hrs
[26] = tested on: PC-3; assay: Modulatory activity of MAPK signaling pathway in human PC-3 cells assessed as beta-catenine expression at 12 to 24 uM incubated for 24 hrs by Western blot analysis; assay type: cell-based; settings: dose microM 12-24, time 24.0 hrs
[27] = tested on: PC-3; assay: Modulatory activity of MAPK signaling pathway in human PC-3 cells assessed as NFkappaB expression at 12 to 24 uM incubated for 24 hrs by Western blot analysis; assay type: cell-based; settings: dose microM 12-24, time 24.0 hrs
[28] = tested on: PC-3; assay: Modulatory activity of MAPK signaling pathway in human PC-3 cells assessed as EST-1 expression at 12 to 24 uM incubated for 24 hrs by Western blot analysis; assay type: cell-based; settings: dose microM 12-24, time 24.0 hrs

COc1cc(C2CC(=O)Nc3cc(C)c(C)cc32)cc(OC)c1OC (stereo not drawn)
inactive: Activity [14] | Activity [15] | Activity [16] | inhibition [21] | Activity [24] | Activity [26] | Activity [27] | Activity [28]
70%: Activity [1]
> 200 µM: IC50 [2]
20%: Activity [17]
active: inhibition [3] | inhibition [4] | inhibition [5] | inhibition [6] Dose-dependent effect | inhibition [7] Dose-dependent effect | inhibition [8] | inhibition [9] | Activity [10] Dose-dependent effect | Activity [11] | Activity [12] | Activity [13] | inhibition [18] Dose-dependent effect | inhibition [19] | inhibition [20] | Activity [22] | Activity [23] | Activity [25]
